Holding throughout (type): biochemical
The target in one test is T1, CYP2D6 (Homo sapiens, UniProt P10635).
T1 construct: 0.1 mg/mL protein human liver microsomes (BD Gentest); tissue BD Gentest; host or cells: human liver microsomes
The experiment in a line: Cocktail assay for CYPs, dextromethorphan O-demethylation (CYP2D6), human liver microsomes. Conditions: 5 μM dextromethorphan, 0.1 mg/mL human liver microsomes, 10 min at 37° C.; read-out: CYP IC50 (nM) 2D6. Put shortly:
(§1)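 Pooled human liver microsomes (0.1 mg/mL) with a probe cocktail of 10 μM phenacetin, 5 μM dextromethorphan and 2 μM midazolam plus NADPH, pH 7.4, 10 min at 37° C. Each metabolite was quantified by LC/MS/MS against a tolbutamide internal standard. IC50 came from % inhibition at 6 concentrations (e.g. 0.0032–10 μM) by non-linear regression.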
In general terms: Liver microsomes are a subcellular fraction often used to study metabolism.

In test [1] the target is T2, CYP3A4 (Homo sapiens, UniProt P08684). The experiment in a line: IC50 vs CYP3A by inhibition of lopinavir metabolism in human liver microsomes. The note with it: 1.5 μM lopinavir, 0.01 mg/mL human liver microsomes, 8 min at 37° C.; read-out: CYP IC50 (nM) 3A4 (LPV). Also noted: 0.01 mg/mL protein human liver microsomes (BD Gentest); tissue BD Gentest; host or cells: human liver microsomes. Put shortly:
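Human liver microsomes (0.01 mg/mL) with 1.5 μM lopinavir, 1 mM NADPH, 3.3 mM MgCl2 in 100 mM potassium phosphate pH 7.4, 8 min at 37 °C, six compound concentrations. Summed M2/M3/M4 hydroxy metabolites quantified by LC/MS/MS against tolbutamide; % inhibition normalised between no-inhibitor and 5 μM ketoconazole controls, IC50 by non-linear regression.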
Target sequence in this assay (P08684 2-503): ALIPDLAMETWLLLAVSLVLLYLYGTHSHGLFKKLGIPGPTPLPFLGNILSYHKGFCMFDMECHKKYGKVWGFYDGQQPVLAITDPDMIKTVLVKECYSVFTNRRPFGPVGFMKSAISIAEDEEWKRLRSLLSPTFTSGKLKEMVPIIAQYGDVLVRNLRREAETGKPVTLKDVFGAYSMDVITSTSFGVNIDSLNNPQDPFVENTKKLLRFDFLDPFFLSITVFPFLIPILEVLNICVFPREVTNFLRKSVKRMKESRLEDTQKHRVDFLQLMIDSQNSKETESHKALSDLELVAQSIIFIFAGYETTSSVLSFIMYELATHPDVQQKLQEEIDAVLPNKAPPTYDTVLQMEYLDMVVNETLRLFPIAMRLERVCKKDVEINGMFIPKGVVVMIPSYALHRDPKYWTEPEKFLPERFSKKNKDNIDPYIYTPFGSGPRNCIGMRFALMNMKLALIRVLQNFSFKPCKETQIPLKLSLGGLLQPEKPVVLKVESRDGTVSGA

Test [2] addresses T2, CYP3A4. The test can be described thus: Cocktail assay for CYPs, midazolam 1′-hydroxylation (CYP3A4), human liver microsomes. Also noted: 0.1 mg/mL protein human liver microsomes (BD Gentest); tissue BD Gentest; host or cells: human liver microsomes. The note with it: 2 μM midazolam, 0.1 mg/mL human liver microsomes, 10 min at 37° C.; read-out: CYP IC50 (nM) 3A4 (MDZ). Put shortly:
as §1
Target sequence in this assay (P08684 whole entry): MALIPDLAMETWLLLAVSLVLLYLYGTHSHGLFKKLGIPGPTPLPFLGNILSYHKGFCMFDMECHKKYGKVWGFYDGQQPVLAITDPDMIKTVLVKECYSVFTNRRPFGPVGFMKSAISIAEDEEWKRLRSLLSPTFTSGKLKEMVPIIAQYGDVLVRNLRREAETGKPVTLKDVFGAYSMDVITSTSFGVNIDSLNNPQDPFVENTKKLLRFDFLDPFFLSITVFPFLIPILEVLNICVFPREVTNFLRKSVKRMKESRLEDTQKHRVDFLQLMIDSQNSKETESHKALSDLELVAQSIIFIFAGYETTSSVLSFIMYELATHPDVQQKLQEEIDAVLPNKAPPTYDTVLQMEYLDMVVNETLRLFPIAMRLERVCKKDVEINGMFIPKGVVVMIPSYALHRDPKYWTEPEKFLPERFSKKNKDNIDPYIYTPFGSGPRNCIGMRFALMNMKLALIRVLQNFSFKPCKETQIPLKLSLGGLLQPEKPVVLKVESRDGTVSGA

For another test, the target named is T3, CYP2C19 (Homo sapiens, UniProt P33261).
T3 construct: 0.1 mg/mL protein human liver microsomes (BD Gentest); tissue BD Gentest; host or cells: human liver microsomes
The experiment in a line: Cocktail assay for CYPs, mephenytoin 4′-hydroxylation (CYP2C19), human liver microsomes. The note with it: 30 μM mephenytoin, 0.1 mg/mL human liver microsomes, 10 min at 37° C.; read-out: CYP IC50 (nM) 2C19. Put shortly: (§2)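 Pooled human liver microsomes (0.1 mg/mL) with probe cocktail incl. 5 μM diclofenac (CYP2C9) and 30 μM mephenytoin (CYP2C19), 1 mM NADPH, pH 7.4 phosphate buffer, 10 min at 37° C. Metabolites quantified by LC/MS/MS against internal standard; % inhibition versus no-inhibitor control, IC50 by non-linear regression.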

The target in the next test is T4, CYP2C9 (Homo sapiens, UniProt P11712).
T4 construct: 0.1 mg/mL protein human liver microsomes (BD Gentest); tissue BD Gentest; host or cells: human liver microsomes
The test can be described thus: Cocktail assay for CYPs, diclofenac 4′-hydroxylation (CYP2C9), human liver microsomes. Conditions: 5 μM diclofenac, 0.1 mg/mL human liver microsomes, 10 min at 37° C.; read-out: CYP IC50 (nM) 2C9. An outline of the steps: as §2

In another test the target is T5, CYP1A2 (Homo sapiens, UniProt P05177).
T5 construct: 0.1 mg/mL protein human liver microsomes (BD Gentest); tissue BD Gentest; host or cells: human liver microsomes
T5 sequence (P05177 1-516): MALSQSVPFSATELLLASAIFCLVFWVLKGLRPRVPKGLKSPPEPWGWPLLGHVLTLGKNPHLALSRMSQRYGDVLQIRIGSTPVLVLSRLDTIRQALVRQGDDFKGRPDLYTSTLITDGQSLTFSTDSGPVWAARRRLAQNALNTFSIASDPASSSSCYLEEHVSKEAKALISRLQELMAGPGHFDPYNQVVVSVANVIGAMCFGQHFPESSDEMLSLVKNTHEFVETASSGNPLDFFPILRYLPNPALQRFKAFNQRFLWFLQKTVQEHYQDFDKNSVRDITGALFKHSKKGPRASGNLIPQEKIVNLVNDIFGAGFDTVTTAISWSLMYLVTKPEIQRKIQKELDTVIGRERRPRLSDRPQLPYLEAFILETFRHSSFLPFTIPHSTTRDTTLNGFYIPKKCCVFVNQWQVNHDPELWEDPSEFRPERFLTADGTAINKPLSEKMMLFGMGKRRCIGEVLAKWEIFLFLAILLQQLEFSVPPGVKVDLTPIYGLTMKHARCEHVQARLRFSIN
The test can be described thus: Cocktail assay for CYPs, phenacetin O-deethylation (CYP1A2), human liver microsomes. The note with it: 10 μM phenacetin, 0.1 mg/mL human liver microsomes, 10 min at 37° C.; read-out: CYP IC50 (nM) 1A2. An outline of the steps:
as §1

This passage reports IC50 results from patent US9975888B2, “Aryl linked imidazole and triazole derivatives and methods of use thereof for improving the pharmacokinetics of a drug” (MERCK SHARP & DOHME CORP., priority 2013, dated 2018).

Each structure is given as a SMILES string. Where only a bound is given, the exact number is not on record here.

T3 sequence (P33261 whole entry): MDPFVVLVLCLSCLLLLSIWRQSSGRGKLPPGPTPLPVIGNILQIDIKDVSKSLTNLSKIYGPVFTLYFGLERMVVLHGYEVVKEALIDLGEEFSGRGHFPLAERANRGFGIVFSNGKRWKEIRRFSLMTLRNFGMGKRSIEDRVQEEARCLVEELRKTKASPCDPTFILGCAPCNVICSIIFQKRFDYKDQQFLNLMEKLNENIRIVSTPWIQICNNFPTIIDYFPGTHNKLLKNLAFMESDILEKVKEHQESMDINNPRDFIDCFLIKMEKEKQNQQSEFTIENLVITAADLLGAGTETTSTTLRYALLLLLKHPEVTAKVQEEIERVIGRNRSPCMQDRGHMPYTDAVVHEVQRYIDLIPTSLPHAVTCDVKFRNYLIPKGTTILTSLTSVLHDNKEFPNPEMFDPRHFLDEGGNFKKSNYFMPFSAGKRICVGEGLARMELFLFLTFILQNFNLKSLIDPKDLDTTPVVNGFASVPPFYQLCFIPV
T1 sequence (P10635 whole entry): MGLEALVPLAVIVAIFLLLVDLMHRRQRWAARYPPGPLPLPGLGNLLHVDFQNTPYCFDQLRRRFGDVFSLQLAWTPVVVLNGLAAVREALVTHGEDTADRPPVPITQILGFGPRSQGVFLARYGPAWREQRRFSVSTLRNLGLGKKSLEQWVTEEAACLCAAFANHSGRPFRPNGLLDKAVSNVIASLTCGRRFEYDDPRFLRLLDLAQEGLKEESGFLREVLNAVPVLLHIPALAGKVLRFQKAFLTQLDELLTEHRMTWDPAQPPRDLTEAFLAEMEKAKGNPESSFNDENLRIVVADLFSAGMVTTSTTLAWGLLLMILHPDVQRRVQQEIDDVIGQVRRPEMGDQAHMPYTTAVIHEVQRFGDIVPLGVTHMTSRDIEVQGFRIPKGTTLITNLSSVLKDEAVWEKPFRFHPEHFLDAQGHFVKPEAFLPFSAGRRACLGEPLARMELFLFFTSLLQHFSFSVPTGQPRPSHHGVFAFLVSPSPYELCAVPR
T4 sequence (P11712 whole entry): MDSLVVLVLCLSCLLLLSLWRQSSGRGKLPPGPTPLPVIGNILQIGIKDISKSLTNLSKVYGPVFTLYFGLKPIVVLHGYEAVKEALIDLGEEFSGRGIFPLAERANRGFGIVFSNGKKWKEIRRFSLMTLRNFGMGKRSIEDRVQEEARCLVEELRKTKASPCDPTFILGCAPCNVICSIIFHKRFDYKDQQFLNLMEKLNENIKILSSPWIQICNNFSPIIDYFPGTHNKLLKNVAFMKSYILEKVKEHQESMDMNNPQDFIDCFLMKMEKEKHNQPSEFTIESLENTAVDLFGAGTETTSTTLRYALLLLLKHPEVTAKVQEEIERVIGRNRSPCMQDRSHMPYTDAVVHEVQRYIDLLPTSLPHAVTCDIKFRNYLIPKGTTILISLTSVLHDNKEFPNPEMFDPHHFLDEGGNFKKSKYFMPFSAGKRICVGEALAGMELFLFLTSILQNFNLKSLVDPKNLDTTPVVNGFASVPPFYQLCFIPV

For orientation: IC50 means the point on the concentration scale where inhibition reaches its midpoint. Regarding `O=S(=O)(c1ccc(N2CCC(O)CC2)nc1)N1CCCC1c1ccccc1-c1cncn1CCc1ccc(F)cc1` (single isomer, unassigned) [Compound 32, (R or S)-1-(5-((2-(2-(1-(4-fluorophenethyl)-1H-imidazol-5-yl)phenyl)pyrrolidin-1-yl)sulfonyl)pyridin-2-yl) piperidin-4-ol], the half-maximal inhibitory concentration (IC50) at CYP2D6 is 5820 nM; at CYP3A4 [1], 0.7 nM; on CYP3A4 [2], 4.2 nM; on CYP2C19 it was 3410 nM; at CYP2C9 it was 3720 nM; at CYP1A2, greater than 10000 nM.
Regarding `COc1ccc(OC)c(S(=O)(=O)N2CCCC2c2cccc(-c3cncn3CCc3ccc(F)cc3)c2)c1` (single isomer, unassigned) [Compound 53b, (R or S)-5-(3-(1-((2,5-Dimethoxy-phenyl)sulfonyl)pyrrolidin-2-yl)phenyl)-1-(4-fluorophenethyl)-1H-imidazole], the half-maximal inhibitory concentration (IC50) is 2330 nM at CYP2D6; 2.1 nM on CYP3A4 [1]; 5.47 nM on CYP3A4 [2]; 149 nM on CYP2C19; 216 nM on CYP2C9; 1470 nM on CYP1A2.
Regarding `O=C(C1CC1)N1CCCC1c1cccc(-c2cncn2CCc2ccc(F)cc2)c1` (stereo not drawn) [Compound 47, cyclopropyl(2-(3-(1-(4-fluorophenethyl)-1H-imidazol-5-yl)phenyl)pyrrolidin-1-yl)methanone], the IC50 was found to be 2500 nM on CYP2D6; 16.7 nM on CYP3A4 [1]; 14.9 nM on CYP3A4 [2]; 1010 nM at CYP2C19; 2330 nM on CYP2C9; 2080 nM at CYP1A2.
Take `O=S(=O)(c1ccc(NCC(O)C2CC2)nc1)N1CCCC1c1ccccc1-c1cncn1CCc1ccc(F)cc1` (single isomer, unassigned) [Compound 34a, 1-cyclopropyl-2-((5-(((R or S)-2-(2-(1-(4-fluorophenethyl)-1H-imidazol-5-yl)phenyl)pyrrolidin-1-yl)sulfonyl)pyridin-2-yl)amino)ethanol]: the 50% inhibitory concentration (IC50) at CYP2D6 amounted to 1670 nM; on CYP3A4 [1], 4.5 nM; at CYP3A4 [2], 10.4 nM; on CYP2C19, 2680 nM; at CYP2C9, 2620 nM; on CYP1A2, 7020 nM.
`O=S(=O)(c1ccc(N2CCOCC2)nc1)N1CCc2c(cccc2-c2cncn2CCc2ccc(F)cc2)C1` [Compound 60, 4-(5-((5-(1-(4-fluorophenethyl)-1H-imidazol-5-yl)-3,4-dihydroisoquinolin-2(1H)-yl)sulfonyl)pyridin-2-yl) morpholine]: the IC50 on CYP2D6 was 2210 nM; on CYP3A4 [1] it was 1.8 nM; on CYP3A4 [2] it was 6.2 nM; at CYP2C19 it was 53 nM; on CYP2C9 it was 1350 nM; on CYP1A2 it was greater than 10000 nM.
Consider `O=C(c1cccnc1)N1CCCC1c1cccc(-c2cncn2CCc2ccc(F)cc2)c1` (single isomer, unassigned) [Compound 48a, (R or S)-(2-(3-(1-(4-fluorophenethyl)-1H-imidazol-5-yl)phenyl)pyrrolidin-1-yl) (pyridin-3-yl) methanone], for which the half-maximal inhibitory concentration (IC50) at CYP2D6 was 6800 nM; at CYP3A4 [1] it was 32.3 nM; on CYP3A4 [2] it was 24.2 nM; on CYP2C19, 5430 nM; at CYP2C9 it was greater than 10000 nM; at CYP1A2, 9300 nM.
Take `CC(C)OC(=O)N1CCCC1c1ccccc1-c1cncn1CCc1ccc(F)cc1` (single isomer, unassigned) [Compound 39a, (R or S)-isopropyl 2-(2-(1-(4-fluorophenethyl)-1H-imidazol-5-yl)phenyl) pyrrolidine-1-carboxylate]: the IC50 at CYP2D6 was determined as 9040 nM; on CYP3A4 [1], 4.3 nM; at CYP3A4 [2], 7.6 nM; at CYP2C19, 2730 nM; on CYP2C9, 2200 nM; at CYP1A2 it was 3840 nM.
For `CN1CCN(c2ncc(S(=O)(=O)N3CCc4c(-c5cncn5CCc5ccc(F)cc5)ccnc4C3)s2)CC1` [Compound 66, 5-((4-(1-(4-fluorophenethyl)-1H-imidazol-5-yl)-5,6-dihydro-1,7-naphthyridin-7(8H)-yl)sulfonyl)-2-(4-methylpiperazin-1-yl)thiazole], the concentration for half-maximal inhibition (IC50) is greater than 10000 nM at CYP2D6; 23.8 nM at CYP3A4 [1]; 22.4 nM on CYP3A4 [2]; greater than 10000 nM at CYP2C19; greater than 10000 nM on CYP2C9; 2680 nM at CYP1A2.
Take `O=C(Oc1ccc(Cl)cc1)N1CCCC1c1ccccc1-c1cncn1CCc1ccc(F)cc1` (stereo not drawn) [Compound 36, 4-chlorophenyl 2-(2-(1-(4-fluorophenethyl)-1H-imidazol-5-yl)phenyl) pyrrolidine-1-carboxylate]: the IC50 at CYP2D6 was determined as 3700 nM; on CYP3A4 [1] it was 7 nM; at CYP3A4 [2], 19.4 nM; at CYP2C19, 1680 nM; on CYP2C9 it was 1900 nM; at CYP1A2 it was 7690 nM.
With `O=S(=O)(c1cnc(N2CCN3C[C@H](O)C[C@H]3C2)s1)N1CCc2cccc(-c3cncn3CCc3ccc(F)cc3)c2C1` [Compound 65, (7R,8aS)-2-(5-((8-(1-(4-fluorophenethyl)-1H-imidazol-5-yl)-3,4-dihydroisoquinolin-2(1H)-yl)sulfonyl)thiazol-2-yl)octahydropyrrolo[1,2-a]pyrazin-7-ol], the IC50 on CYP2D6 was 4900 nM; at CYP3A4 [1] it was 8.9 nM; at CYP3A4 [2] it was 18.5 nM; on CYP2C19, 9230 nM; on CYP2C9, 1260 nM; on CYP1A2, greater than 10000 nM.
Regarding `CN1CCN(c2ncc(S(=O)(=O)NC(c3ccccc3)c3ccccc3-c3cncn3CCc3ccc(F)cc3)s2)CC1` (stereo not drawn) [Compound 5, N-((2-(1-(4-fluorophenethyl)-1H-imidazol-5-yl)phenyl) (phenyl)methyl)-2-(4-methylpiperazin-1-yl)thiazole-5-sulfonamide], the IC50 is greater than 10000 nM on CYP2D6; 80 nM at CYP3A4 [1]; 65 nM at CYP3A4 [2]; greater than 10000 nM on CYP2C19; greater than 10000 nM at CYP2C9; greater than 10000 nM at CYP1A2.
For the molecule `O=S(=O)(c1ccc(N2CCN(CCO)CC2)nc1)N1CCCC1c1ccccc1-c1cncn1CCc1ccc(F)cc1` (single isomer, unassigned) [Compound 35a, (R or S)-2-(4-(5-((2-(2-(1-(4-fluorophenethyl)-1H-imidazol-5-yl)phenyl)pyrrolidin-1-yl)sulfonyl)pyridin-2-yl)piperazin-1-yl) ethanol], the IC50 at CYP2D6 was 4600 nM; on CYP3A4 [1] it was 4.2 nM; on CYP3A4 [2], 8.1 nM; on CYP2C19, greater than 10000 nM; at CYP2C9, 8600 nM; at CYP1A2, greater than 10000 nM.
As for `CC(=O)Nc1ncc(S(=O)(=O)N2CCCC2c2ccccc2-c2cncn2CCc2ccc(F)cc2)s1` (stereo not drawn) [Compound 21, N-(5-((2-(2-(1-(4-fluorophenethyl)-1H-imidazol-5-yl)phenyl)pyrrolidin-1-yl)sulfonyl)thiazol-2-yl) acetamide], the half-maximal inhibitory concentration (IC50) at CYP2D6 came to 4050 nM; on CYP3A4 [1] it was 5.6 nM; at CYP3A4 [2], 13.7 nM; at CYP2C19 it was 4190 nM; at CYP2C9, 4410 nM; at CYP1A2, 5890 nM.
